Assay: method code G-GLC, from DOI: 10.1021/je0101909

Compound | logP
Clc1ccc(-c2cc(Cl)c(Cl)c(Cl)c2Cl)cc1Cl | 6.75
Clc1ccc(-c2cc(Cl)c(Cl)c(Cl)c2)cc1 | 6.53
Clc1cc(-c2cc(Cl)c(Cl)c(Cl)c2Cl)cc(Cl)c1Cl | 7.15
Clc1cc(-c2ccc(Cl)c(Cl)c2Cl)cc(Cl)c1Cl | 6.73
Clc1cc(Cl)c(-c2cc(Cl)c(Cl)c(Cl)c2)cc1Cl | 6.82
Clc1ccc(-c2ccc(Cl)c(Cl)c2Cl)cc1Cl | 6.61
Clc1ccc(-c2cc(Cl)c(Cl)c(Cl)c2Cl)cc1 | 6.47
Clc1cc(-c2cc(Cl)c(Cl)c(Cl)c2)cc(Cl)c1Cl | 7.01
Clc1ccc(-c2cc(Cl)c(Cl)c(Cl)c2)c(Cl)c1 | 6.5
Clc1ccc(-c2cc(Cl)c(Cl)cc2Cl)cc1Cl | 6.49
Clc1ccc(-c2cc(Cl)c(Cl)c(Cl)c2)cc1Cl | 6.56

— the SangsterLogP compilation
